Results on 2 compounds are retold here after article PMC9583322, “Vicinal Diaryl-Substituted Isoxazole and Pyrazole Derivatives with In Vitro Growth Inhibitory and In Vivo Antitumor Activity” (ACS Omega, 2022).

Data set [1] relates to Mahlavu, Huh7, MCF7, and MDA-MB-231 cells. The data set is described as follows: Hoechst nuclear staining for cell death. To be noted: IC100 concentrations, 48 h. In kind it is cell-based, human. On the procedure:
Mahlavu, Huh7, MCF7, and MDA-MB-231 cells were cultured onto cover slides in six-well plates for 24 h according to their cell growth rate. […] The 1× PBS was used to wash the cells three times, and the cells were fixed with 100% ice-cold methanol. Then, the cells were stained with 1 μg/mL Hoechst (#33258, Sigma). The cells were analyzed under the fluorescence microscope (Nikon Eclipse 50i).

The subject of data set [2] is Mahlavu xenografts. The data set can be described thus: Mahlavu hepatocellular carcinoma xenograft. The settings on record: 40 mg/kg oral; for reduction in tumor volume: Mahlavu xenografts, nude mice, twice a week, 4 weeks; for Tolerability of the administered dose: in all studies (Mahlavu and MDA-MB-231 xenografts), no significant bodyweight loss, toxic effects or mortality. Format: in vivo. On the procedure:
(§1) Mahlavu cells (10 × 10^6 cells/mouse) prepared in 150 μL of DMEM were injected subcutaneously to the flank of 6–8 weeks old male athymic nude mice, while MDA-MB-231 cells (2 × 10^6cells/mouse) in 1:1 DMEM and matrigel were injected into mammary fat pad (MFP) of 6–8 weeks old female athymic nude mice. Tumor volume and mouse weight were measured twice a week using calipers. When the tumor volume reached ∼150 mm^3, xenografts were randomized into groups (6 mice per group), and the mice were administered subsequently with 11 or 85 (40 mg/kg in 0.5% hydroxypropyl methylcellulose plus 1% Tween 80) or vehicle by gavage feeding (3–4 days/week) for 4 weeks. The mice were sacrificed 30 days after initiation of the compound treatment and tumors were collected. Two-way ANOVA was performed for statistical significance by GraphPad Prism. All of the mice were maintained under a temperature-controlled environment with a 12 h light/dark cycle and received a standard diet and water ad libitum.

Data set [3] relates to MDA-MB-231 xenografts. The data set can be described thus: MDA-MB-231 breast cancer xenograft. Format: in vivo, mouse. The settings on record: nude mice, 40 mg/kg oral, twice a week, 4 weeks. On the procedure:
as §1

Data set [4] relates to 22 cancer cells of the NCI 60 cell line panel. The data set is described as follows: NCI-60 single-dose screen, text summary. Format: cell-based. To be noted: against 22 cancer cells, read-out: growth inhibition (GI) values in the range. On the procedure:
(§2) Moreover, in vitro single-dose anticancer screening of 11 and 85 at 10 μM was performed utilizing the stable panel of 60 cell lines comprising 9 different cancer types at the National Cancer Institute (NCI) under the Developmental Therapeutics Program (Table S1).[31]

The subject of data set [5] is A549/ATCC. The data set can be described thus: NCI-60 single-dose screen. Format: cell-based. To be noted: Homo sapiens, Non-Small Cell Lung Cancer, read-out: % Growth Inhibition (GI%). On the procedure: as §2
In data set [6] the test system is CAKI-1. The data set is described as follows: NCI-60 single-dose screen. In kind it is cell-based. To be noted: Homo sapiens, CAKI-1, Renal Cancer, read-out: % Growth Inhibition (GI%). On the procedure:
as §2

The test system of data set [7] is CCRF-CEM. The data set can be described thus: NCI-60 single-dose screen. Format: cell-based. To be noted: Homo sapiens, Leukemia, read-out: % Growth Inhibition (GI%). On the procedure: as §2
Data set [8] concerns EKVX. The data set can be described thus: NCI-60 single-dose screen. In kind it is cell-based. To be noted: Homo sapiens, Non-Small Cell Lung Cancer, read-out: % Growth Inhibition (GI%). On the procedure:
as §2

Data set [9] relates to HCT-15. The data set is described as follows: NCI-60 single-dose screen. To be noted: Homo sapiens, HCT-15, Colon Cancer, read-out: % Growth Inhibition (GI%). In kind it is cell-based. On the procedure:
as §2

For data set [10], the system named is IGROV1. The data set is described as follows: NCI-60 single-dose screen. In kind it is cell-based. The settings on record: Homo sapiens, IGROV-1, IGROV1, Ovarian Cancer, read-out: % Growth Inhibition (GI%). On the procedure:
as §2

Data set [11] deals with KM12. The data set can be described thus: NCI-60 single-dose screen. Format: cell-based. The settings on record: Homo sapiens, KM12, Colon Cancer, read-out: % Growth Inhibition (GI%). On the procedure: as §2
In data set [12] the test system is LOX-IMVI. The data set is described as follows: NCI-60 single-dose screen. In kind it is cell-based. The settings on record: Homo sapiens, Melanoma, read-out: % Growth Inhibition (GI%). On the procedure:
as §2

In data set [13] the test system is MALME-3M. The data set can be described thus: NCI-60 single-dose screen. Format: cell-based. The settings on record: Homo sapiens, Melanoma, read-out: % Growth Inhibition (GI%). On the procedure:
as §2

In data set [14] the test system is MCF7. The data set can be described thus: NCI-60 single-dose screen. The settings on record: Homo sapiens, MCF7, Breast Cancer, read-out: % Growth Inhibition (GI%). Format: cell-based. On the procedure:
as §2

Data set [15] concerns MDA-MB-435. The data set is described as follows: NCI-60 single-dose screen. To be noted: Homo sapiens, MDA-MB-435, Melanoma, read-out: % Growth Inhibition (GI%). In kind it is cell-based. On the procedure: as §2
For data set [16], the system named is MOLT-4. The data set is described as follows: NCI-60 single-dose screen. In kind it is cell-based. The settings on record: Homo sapiens, MOLT-4, Leukemia, read-out: % Growth Inhibition (GI%). On the procedure:
as §2

Data set [17] concerns OVCAR-5. The data set can be described thus: NCI-60 single-dose screen. Format: cell-based. The settings on record: Homo sapiens, OVCAR-5, Ovarian Cancer, read-out: % Growth Inhibition (GI%). On the procedure:
as §2

Data set [18] relates to RPMI-8226. The data set is described as follows: NCI-60 single-dose screen. In kind it is cell-based. The settings on record: Homo sapiens, RPMI-8226, Leukemia, read-out: % Growth Inhibition (GI%). On the procedure: as §2
The test system of data set [19] is SF-295. The data set can be described thus: NCI-60 single-dose screen. In kind it is cell-based. To be noted: Homo sapiens, SF-295, CNS Cancer, read-out: % Growth Inhibition (GI%). On the procedure: as §2
Data set [20] has as its system SK-OV-3. The data set can be described thus: NCI-60 single-dose screen. In kind it is cell-based. To be noted: Homo sapiens, SK-OV-3, Ovarian Cancer, read-out: % Growth Inhibition (GI%). On the procedure: as §2
The subject of data set [21] is SN12C. The data set is described as follows: NCI-60 single-dose screen. Format: cell-based. To be noted: Homo sapiens, Renal Cancer, read-out: % Growth Inhibition (GI%). On the procedure: as §2
Data set [22] relates to SW-620. The data set can be described thus: NCI-60 single-dose screen. Format: cell-based. To be noted: Homo sapiens, SW-620, Colon Cancer, read-out: % Growth Inhibition (GI%). On the procedure: as §2
The test system of data set [23] is UO-31. The data set can be described thus: NCI-60 single-dose screen. Format: cell-based. The settings on record: Homo sapiens, UO-31, Renal Cancer, read-out: % Growth Inhibition (GI%). On the procedure:
as §2

As to `Cc1ccccc1COc1ccc(-c2noc(C)c2-c2ccc(Cl)cc2)cc1` [compound 11, 4-(4-Chlorophenyl)-5-methyl-3-(4-((2-methylbenzyl)oxy)phenyl)isoxazole], in [1], the “Nuclear morphology by Hoechst staining” value is reported as “Apoptotic bodies were detectable”. In addition, the “reduction in tumor volume” value in data set [2] came to 85%. Besides, the “Tolerability of the administered dose” value in data set [2] is “well tolerated”. Also, the “decrease in tumor volumes as compared to the control group” value in data set [3] is recorded as approximately 50%. Moreover, the inhibition at 10 µM in data set [4] was 45 to 100%; in data set [5] it was 50.7%; in [6] it was 51.3%; in [7], 61.8%; in [8], 24.9%; in data set [9], 62.5%. In addition, the inhibition at 10 µM in [10] stood at 47.5%; in [11] it was 45.7%; in [12] it was 32%; in data set [13] it was 40.2%; in data set [14], 68.3%; in [15], 100%. Moreover, the inhibition at 10 µM in [16] worked out at 67.2%; in [17], 12.4%; in data set [18], 19%; in [19] it was 50.6%; in data set [20] it was 40.5%; in [21] it was 31.7%. The inhibition at 10 µM stood at 68.3% in [22] and 25.6% in [23].
With `Cc1ccccc1COc1ccc(-c2ccnn2-c2ccc(Cl)cc2)cc1` [compound 85, 1-(4-Chlorophenyl)-5-(4-((2-methylbenzyl)oxy)phenyl)-1H-pyrazole], the “Nuclear morphology by Hoechst staining” value in data set [1] is listed as “Apoptotic bodies were detectable”. In addition, the “reduction in tumor volume” value in data set [2] worked out at 40%. Also, the “Tolerability of the administered dose” value in data set [2] was “well tolerated”. In addition, the “decrease in tumor volumes as compared to the control group” value in data set [3] was approximately 50%. The inhibition at 10 µM in data set [4] is 45 to 100%; in data set [5], 50.5%; in [6], 40.3%; in data set [7], 57.6%; in [8] it was 22.9%; in data set [9], 60.1%. Further, the inhibition at 10 µM in data set [10] worked out at 42.5%; in data set [11], 49.3%; in data set [12], 35.7%; in data set [13], 32.8%; in [14], 68.1%; in [15] it was 99.2%. Further, the inhibition at 10 µM in data set [16] stood at 73.7%; in data set [17], 8.29%; in data set [18] it was 22.6%; in data set [19], 46.9%; in [20], 36.3%; in data set [21], 32.4%. Also, the inhibition at 10 µM in [22] was found to be 70.3%; in data set [23] it was 25.6%.

A word on the inhibition: it is the drop in the measured response relative to a control, in per cent.
